Here are results for eleven compounds from patent US20260125382A1, “COMPOUNDS FOR INHIBITING OR DEGRADING CDK2 AND/OR CDK9 AND MEDICINAL USE THEREOF” (KOREA RESEARCH INSTITUTE OF CHEMICAL TECHNOLOGY, priority 2022, published 2026).

Molecules are shown by their SMILES.

In one experiment the target is T1, CDK2 (Homo sapiens, UniProt P24941).
T1 construct: endogenous in cells; host or cells: MDA-MB-231
Nature of the experiment: CDK protein degradation activity (Western blotting), CDK2. The experiment is classed as cell-based. The following applies: MDA-MB-231 cells, 16 hours, Western blot. In short, it runs like this:
(§1)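 Protein levels were read by Western blot densitometry, tubulin serving as loading reference. Beforehand, MDA-MB-231 cells had been exposed for 16 hours to 100 nM, 1 μM or 10 μM compound, DMSO as control.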
Background: Immunoblotting shows a protein as a band on a membrane.

Another experiment concerns the target T2, CDK9 (Homo sapiens, UniProt P50750).
T2 construct: endogenous in cells; host or cells: MDA-MB-231
The experiment is described as follows: CDK protein degradation activity (Western blotting), CDK9. It counts as cell-based. The following applies: MDA-MB-231 cells, 16 hours, Western blot. An outline of the steps: as §1

T2 sequence (P50750 whole entry): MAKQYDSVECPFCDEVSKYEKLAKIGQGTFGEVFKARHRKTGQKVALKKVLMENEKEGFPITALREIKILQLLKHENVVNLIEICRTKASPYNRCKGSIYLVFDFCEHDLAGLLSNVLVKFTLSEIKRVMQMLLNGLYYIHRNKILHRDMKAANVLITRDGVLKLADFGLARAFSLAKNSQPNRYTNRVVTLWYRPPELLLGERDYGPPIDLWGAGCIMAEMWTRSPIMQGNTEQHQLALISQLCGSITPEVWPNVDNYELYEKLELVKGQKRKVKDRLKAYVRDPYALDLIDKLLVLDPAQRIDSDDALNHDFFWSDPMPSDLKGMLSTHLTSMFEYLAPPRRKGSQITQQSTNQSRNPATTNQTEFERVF

For the compound `O=C1CC[C@H](N2C(=O)c3ccc(N4CC(C(=O)N5CCN(CC6CCN(c7ccc(Nc8ncnc9c8ncn9C8CC(NC(=O)Cc9ccccc9)C8)cc7)CC6)CC5)C4)cc3C2=O)C(=O)N1` (stereo partly drawn) [Compound 331, N-((1s,3s)-3-(6-((4-(4-((4-(1-(2-(2,6-dioxopiperidin-3-yl)-1,3-dioxoisoindolin-5-yl)azetidin-3-carbonyl)piperazin-1-yl)methyl)piperidin-1-yl)phenyl)amino)-9H-purin-9-yl)cyclobutyl)-2-phenylacetamide], on CDK2, the “Enzyme degradation CDK2 (% remaining) @ 0.1 μM” value came to 50%, the “Enzyme degradation CDK2 (% remaining) @ 1 μM” value is listed as 30% and the “Enzyme degradation CDK2 (% remaining) @ 10 μM” value worked out at 30%. Moreover, at CDK9, the “Enzyme degradation CDK9 (% remaining) @ 0.1 μM” value came out at 30%, the “Enzyme degradation CDK9 (% remaining) @ 1 μM” value is 10% and the “Enzyme degradation CDK9 (% remaining) @ 10 μM” value was 0%.
For `O=C1CC[C@H](N2C(=O)c3ccc(N4CCN(C5CC6(CCN(c7ccc(Nc8ncnc9c8ncn9[C@H]8C[C@@H](NC(=O)Cc9ccccc9)C8)cc7)CC6)C5)CC4)cc3C2=O)C(=O)N1` [Compound 335, N-((1s,3s)-3-(6-((4-(2-(4-(2-(2,6-dioxopiperidin-3-yl)-1,3-dioxoisoindolin-5-yl)piperazin-1-yl)-7-azaspiro[3.5]nonan-7-yl)phenyl)amino)-9H-purin-9-yl)cyclobutyl)-2-phenylacetamide], on CDK2, the “Enzyme degradation CDK2 (% remaining) @ 0.1 μM” value was 20%, the “Enzyme degradation CDK2 (% remaining) @ 1 μM” value was 10% and the “Enzyme degradation CDK2 (% remaining) @ 10 μM” value is 10%. For the same compound, on CDK9, the “Enzyme degradation CDK9 (% remaining) @ 0.1 μM” value amounted to 70%, the “Enzyme degradation CDK9 (% remaining) @ 1 μM” value amounted to 0% and the “Enzyme degradation CDK9 (% remaining) @ 10 μM” value turned out to be 0%.
Turning to `O=C1CC[C@H](N2C(=O)c3ccc(OCC(=O)N4CCC(CN5CCC(c6ccc(Nc7ncnc8c7ncn8C7CC(NC(=O)Cc8ccccc8)C7)cc6)CC5)CC4)cc3C2=O)C(=O)N1` (stereo partly drawn) [Compound 289, N-((1s,3s)-3-(6-((4-(1-((1-(2-((2-(2,6-dioxopiperidin-3-yl)-1,3-dioxoisoindolin-5-yl)oxy)acetyl)piperidin-4-yl)methyl)piperidin-4-yl)phenyl)amino)-9H-purin-9-yl)cyclobutyl)-2-phenylacetamide], at CDK2, the “Enzyme degradation CDK2 (% remaining) @ 0.1 μM” value worked out at 40%, the “Enzyme degradation CDK2 (% remaining) @ 1 μM” value worked out at 60% and the “Enzyme degradation CDK2 (% remaining) @ 10 μM” value is 70%. For the same compound, at CDK9, the “Enzyme degradation CDK9 (% remaining) @ 0.1 μM” value amounted to 30%, the “Enzyme degradation CDK9 (% remaining) @ 1 μM” value is given as 0% and the “Enzyme degradation CDK9 (% remaining) @ 10 μM” value came out at 0%.
In the case of `O=C1CC[C@H](N2C(=O)c3ccc(N4CCC(CN5CCN(c6ccc(Nc7ncnc8c7ncn8[C@H]7C[C@@H](NC(=O)Cc8ccccc8)C7)cc6)CC5)CC4)cc3C2=O)C(=O)N1` [Compound 179, N-((1s,3s)-3-(6-((4-(4-((1-(2-(2,6-dioxopiperidin-3-yl)-1,3-dioxoisoindolin-5-yl)piperidin-4-yl)methyl)piperazin-1-yl)phenyl)amino)-9H-purin-9-yl)cyclobutyl)-2-phenylacetamide], at CDK2, the “Enzyme degradation CDK2 (% remaining) @ 0.1 μM” value is recorded as 10%, the “Enzyme degradation CDK2 (% remaining) @ 1 μM” value is 0% and the “Enzyme degradation CDK2 (% remaining) @ 10 μM” value was 0%. On CDK9, the “Enzyme degradation CDK9 (% remaining) @ 0.1 μM” value is 10%, the “Enzyme degradation CDK9 (% remaining) @ 1 μM” value was found to be 0% and the “Enzyme degradation CDK9 (% remaining) @ 10 μM” value is reported as 0%.
Take `O=C1CC[C@@H](c2ccc(OCC(=O)N3CCC(CN4CCN(c5ccc(Nc6ncnc7c6ncn7[C@H]6C[C@@H](NC(=O)c7c(Cl)cccc7Cl)C6)cc5)CC4)CC3)cc2)C(=O)N1` [Compound 437, 2,6-dichloro-N-((1s,3s)-3-(6-((4-(4-((1-(2-(4-(2,6-dioxopiperidin-3-yl)phenoxy)acetyl)piperidin-4-yl)methyl)piperazin-1-yl)phenyl)amino)-9H-purin-9-yl)cyclobutyl)benzamide]: at CDK2, the “Enzyme degradation CDK2 (% remaining) @ 0.1 μM” value came to 30%, the “Enzyme degradation CDK2 (% remaining) @ 1 μM” value was 40% and the “Enzyme degradation CDK2 (% remaining) @ 10 μM” value was 40%. For the same compound, on CDK9, the “Enzyme degradation CDK9 (% remaining) @ 0.1 μM” value is 10/10/10%, the “Enzyme degradation CDK9 (% remaining) @ 1 μM” value was 10/10/10% and the “Enzyme degradation CDK9 (% remaining) @ 10 μM” value is 10/10/10%.
With `O=C1CCC(N2C(=O)c3ccc(N4CCC(CN5CCN(c6ccc(Nc7ncnc8c7ncn8[C@H]7C[C@@H](NC(=O)c8cccc(Cl)n8)C7)cc6)CC5)CC4)cc3C2=O)C(=O)N1` (stereo partly drawn) [Compound 391, 6-chloro-N-((1s,3s)-3-(6-((4-(4-((1-(2-(2,6-dioxopiperidin-3-yl)-1,3-dioxoisoindolin-5-yl)piperidin-4-yl)methyl)piperazin-1-yl)phenyl)amino)-9H-purin-9-yl)cyclobutyl)picolinamide], on CDK2, the “Enzyme degradation CDK2 (% remaining) @ 0.1 μM” value is 10/10/10%, the “Enzyme degradation CDK2 (% remaining) @ 1 μM” value was 10/10/10% and the “Enzyme degradation CDK2 (% remaining) @ 10 μM” value is listed as 10/10/10%. For the same compound, at CDK9, the “Enzyme degradation CDK9 (% remaining) @ 0.1 μM” value was 0/0/0%, the “Enzyme degradation CDK9 (% remaining) @ 1 μM” value was 0/0/0% and the “Enzyme degradation CDK9 (% remaining) @ 10 μM” value is given as 0/0/0%.
`O=C1CC[C@H](N2C(=O)c3ccc(N4CCC(C(=O)N5CCC(CN6CCN(c7ccc(Nc8ncnc9c8ncn9C8CC(NC(=O)Cc9ccccc9)C8)cc7)CC6)CC5)CC4)cc3C2=O)C(=O)N1` (stereo partly drawn) [Compound 330, N-((1s,3s)-3-(6-((4-(4-((1-(1-(2-(2,6-dioxopiperidin-3-yl)-1,3-dioxoisoindolin-5-yl)piperidin-4-carbonyl)piperidin-4-yl)methyl)piperazin-1-yl)phenyl)amino)-9H-purin-9-yl)cyclobutyl)-2-phenylacetamide]: on CDK2, the “Enzyme degradation CDK2 (% remaining) @ 0.1 μM” value amounted to 60%, the “Enzyme degradation CDK2 (% remaining) @ 1 μM” value came out at 60% and the “Enzyme degradation CDK2 (% remaining) @ 10 μM” value is listed as 40%. Also, at CDK9, the “Enzyme degradation CDK9 (% remaining) @ 0.1 μM” value is recorded as 0/0/0%, the “Enzyme degradation CDK9 (% remaining) @ 1 μM” value was 0/0/0% and the “Enzyme degradation CDK9 (% remaining) @ 10 μM” value is 0/0/0%.
For `Cc1cccc(C(=O)N[C@H]2C[C@@H](n3cnc4c(NC5CCN(CCOC6CCN(C(=O)CNc7ccc8c(c7)C(=O)N(C7CCC(=O)NC7=O)C8=O)CC6)CC5)ncnc43)C2)n1` (stereo partly drawn) [Compound 45, N-((1s,3s)-3-(6-((1-(2-((1-((2-(2,6-dioxopiperidin-3-yl)-1,3-dioxoisoindolin-5-yl)glycyl)piperidin-4-yl)oxy)ethyl)piperidin-4-yl)amino)-9H-purin-9-yl)cyclobutyl)-6-methylpicolinamide], at CDK2, the “Enzyme degradation CDK2 (% remaining) @ 0.1 μM” value stood at 80%, the “Enzyme degradation CDK2 (% remaining) @ 1 μM” value is 60% and the “Enzyme degradation CDK2 (% remaining) @ 10 μM” value is listed as 90%. At CDK9, the “Enzyme degradation CDK9 (% remaining) @ 0.1 μM” value is 0/0/0%, the “Enzyme degradation CDK9 (% remaining) @ 1 μM” value is given as 0/0/0% and the “Enzyme degradation CDK9 (% remaining) @ 10 μM” value was 0/0/0%.
In the case of `CC(=O)NC1CC(n2cnc3c(NCC4CCN(CC5CCN(c6cccc7c6C(=O)N([C@H]6CCC(=O)NC6=O)C7=O)CC5)CC4)ncnc32)C1` (stereo partly drawn) [Compound 159, N-((1s,3s)-3-(6-(((1-((1-(2-(2,6-dioxopiperidin-3-yl)-1,3-dioxoisoindolin-4-yl)piperidin-4-yl)methyl)piperidin-4-yl)methyl)amino)-9H-purin-9-yl)cyclobutyl)acetamide], on CDK2, the “Enzyme degradation CDK2 (% remaining) @ 0.1 μM” value is 100%, the “Enzyme degradation CDK2 (% remaining) @ 1 μM” value was 80% and the “Enzyme degradation CDK2 (% remaining) @ 10 μM” value stood at 50%. Besides, on CDK9, the “Enzyme degradation CDK9 (% remaining) @ 0.1 μM” value came to 90%, the “Enzyme degradation CDK9 (% remaining) @ 1 μM” value is given as 70% and the “Enzyme degradation CDK9 (% remaining) @ 10 μM” value is recorded as 30%.
On to `N#Cc1cccc(C(=O)N[C@H]2C[C@@H](n3cnc4c(Nc5ccc(N6CCN(CC7CCN(c8ccc9nnn([C@H]%10CCC(=O)NC%10=O)c(=O)c9c8)CC7)CC6)cc5)ncnc43)C2)n1` (racemic) [Compound 418, 6-cyano-N-((1s,3s)-3-(6-((4-(4-((1-(3-(2,6-dioxopiperidin-3-yl)-4-oxo-3,4-dihydrobenzo[d][1,2,3]triazin-6-yl)piperidin-4-yl)methyl)piperazin-1-yl)phenyl)amino)-9H-purin-9-yl)cyclobutyl)picolinamide], for which, on CDK2, the “Enzyme degradation CDK2 (% remaining) @ 0.1 μM” value is 10/10/10%, the “Enzyme degradation CDK2 (% remaining) @ 1 μM” value is given as 10/10/10% and the “Enzyme degradation CDK2 (% remaining) @ 10 μM” value is given as 10/10/10%. At CDK9, the “Enzyme degradation CDK9 (% remaining) @ 0.1 μM” value was 0/0/0%, the “Enzyme degradation CDK9 (% remaining) @ 1 μM” value was 0/0/0% and the “Enzyme degradation CDK9 (% remaining) @ 10 μM” value is 0/0/0%.
In the case of `O=C1CC[C@H](N2C(=O)c3ccc(N4CCC(C(=O)N5CCC(CN6CCN(c7ccc(Nc8ncnc9c8ncn9C8CC(NC(=O)c9c(Cl)cccc9Cl)C8)cc7)CC6)CC5)CC4)cc3C2=O)C(=O)N1` (stereo partly drawn) [Compound 395, 2,6-dichloro-N-((1s,3s)-3-(6-((4-(4-((1-(1-(2-(2,6-dioxopiperidin-3-yl)-1,3-dioxoisoindolin-5-yl)piperidin-4-carbonyl)piperidin-4-yl)methyl)piperazin-1-yl)phenyl)amino)-9H-purin-9-yl)cyclobutyl)benzamide], on CDK2, the “Enzyme degradation CDK2 (% remaining) @ 0.1 μM” value was 20/20/20%, the “Enzyme degradation CDK2 (% remaining) @ 1 μM” value is 20/20/20% and the “Enzyme degradation CDK2 (% remaining) @ 10 μM” value was 20/20/20%. Moreover, on CDK9, the “Enzyme degradation CDK9 (% remaining) @ 0.1 μM” value was 0/0/0%, the “Enzyme degradation CDK9 (% remaining) @ 1 μM” value is 0/0/0% and the “Enzyme degradation CDK9 (% remaining) @ 10 μM” value is given as 0/0/0%.
